Laboratory results reported in patent publication EP0193637A1, “Use for the improvement or treatment of various diseases associated with cerebrovascular damages” (Yoshitomi Pharmaceutical Industries, Ltd., priority 1985, dated 1986).
Structures can show the parent of a compound that is named as a salt. Marks after values point to notes of the source that are not given here.

Legend:
KCN-induced coma = test: KCN-induced coma, recovery of righting reflex; format: in vivo, mice; conditions: values are log t, 10 mg/kg i.p. 30 minutes prior to KCN 1.8 mg/kg i.v., p<0.01 vs. control
Experimental: Male dd-mice were intraperitoneally injected with Compound A 30 minutes prior to the intravenous injection of 1.8 mg/kg of KCN-saline solution. The time to recovery of righting reflex, coma time, was determined.

Acute toxicity in rats = conditions: rat, in vivo, po, one week-observation
Experimental: (§1) Compound A was orally administered to male Wistar-rats weighing about 200 g and male ddY-mice weighing 20-25 g. After one week-observation, the LD50 value (mg/kg) was measured.

[1] = tested on: 2-deoxy-D-glucose uptake into rat brain; test: Chronic administration, 2-deoxy-D-glucose uptake into rat brain; format: in vivo; conditions: 10 mg/kg i.p. once daily for 14 days; for dpm/mg tissue dpm/µl serum: 3H-2-deoxy-D-glucose 27 hours after last administration, mean ± standard error, p<0.05 vs. control; for dpm/mg tissue dpm/µl serum (Δ%): change vs. control
Experimental: 2-deoxy-D-glucose uptake into rat brain Compound A was administered intraperitoneally to male Wistar-rat once daily for 14 days. ^3H-2-deoxy-D-glucose (40 µCi/kg, i.p.) was injected to rats 27 hours after the last administration of Compound A. Fifteen minuts after the injection of 3H-2-deoxy-D-glucose, the animals were decapitated and blood from trunk was collected simultaneously. The brains were dissected into five regions. Radioactivity in the brain sample and serum was counted using Soluene-350 and toluene scintillator. […] Each value represents the mean ± standard error.

KCN-induced mortality = test: KCN-induced mortality; format: in vivo, mice; conditions: 30 mg/kg i.p. 30 minutes before KCN 2.5 mg/kg i.v.
Acute toxicity in mice = conditions: mouse, in vivo, po, one week-observation
Experimental: as §1

ECS = test: Electroconvulsive shock (ECS) induced amnesia, one trial step-through passive avoidance response; format: in vivo, mice; conditions: ECS-induced amnesia (30 mA, 0.5 seconds); 5 mg/kg i.p. immediately after ECS; test 24 hours after training; mean ± standard error; p<0.05 vs. ECS-vehicle control
From the text: (§2) Male ddY-mice, weighing 19-25 g were used. The test apparatus consisted of a two-compartment avoidance box with a large 10x23x20 cm compartment illuminated by a 40W bulb, and a. small 14x14x20 cm shock compartment, painted black, with a floor made of metal rods 6 mm apart through which a foot shock (FS, 0.25 mA, 2 seconds) could be delivered. The two compartments were separated by a guillotine door.
(§3) The training procedure consisted of placing the mouse in the center of the large compartment. Within 20 to 50 seconds the animal entered the small compartment and was immediately given FS, and removed from the compartment. The animals were exposed to C02 for 8 seconds or given an electroconvulsive shock (ECS, 30 mA, 0.5 seconds) immediately after FS, or were injected with an amnestic agent scopolamine (SCO, 3 mg/kg i.p.) 20 minutes before FS.
(§4) The testing procedure consisted of placing the animal in the large compartment as above and noting the latency to enter the dark compartment up to 600 seconds. The training-to-test interval was 24 hours. Compound A or vehicle (0.5 % methylcellulose) was injected intraperitoneally immediately after exposure to C02 or ECS. For the scopolamine induced amnesia model, they were injected intraperitoneally immediately after FS. Thirty mice were used per test group.

[2] = tested on: scopolamine induced amnesia; test: Scopolamine induced amnesia, one trial step-through passive avoidance response; format: in vivo, mice; conditions: scopolamine (3 mg/kg i.p.) induced amnesia; 5 mg/kg i.p. immediately after foot shock; test 24 hours after training; mean ± standard error; p<0.05 vs. SCO-vehicle control
From the text: as §2, §3, §4

normabaric hypoxia = test: Normobaric hypoxia, time to respiratory failure; format: in vivo, mice; conditions: 30 mg/kg i.p., nitrogen and oxygen (96:4), mean ± standard error, p<0.01 vs. control
Experimental: The experiment was performed according to the method by Yasuda et al described in Arch. Int. Pharmacolodyn., vol. 233, p. 136-144 (1978).
Three male ddY-mice were introduced into a 300 ml glass container in which circulated a current of a gas mixture of nitrogen and oxygen (96:4) at the rate of about 51/minutes. The time to respiratory failure was recorded.

CO2-induced amnesia = test: CO2-induced amnesia, one trial step-through passive avoidance response; format: in vivo, mice; conditions: 5 mg/kg i.p. immediately after CO2, test 24 hours after training, up to 600 seconds, mean ± standard error, p<0.01 vs. CO2-vehicle control
From the text: as §2, §3, §4

[3] = tested on: cerebral energy state in KCN-induced anoxia mice; test: Cerebral energy state in KCN-induced anoxia mice; format: in vivo; conditions: brain, p<0.01 vs. control; for ADP / AMP / ATP / Glucose / Lactate / P-creatine: Compound A i.p.; for ECP (Energy charge potential): ECP = ATP + 0.5xADP / ATP + ADP + AMP
Experimental: Male ddY-mice weighing 22-26 g were used. Compound A was dissolved in 0.5 % methylcellulose solution and injected intraperitoneally. After administration, 2.5 mg/kg of KCN in saline was injected intravenously. The animals were frozen in liquid nitrogen at 30 or 120 seconds laterm After removing and weighing, the frozen cerebrums were powdered.
According to the procedure by Lowry, O. H. et al described in "A flexible system of enzymatic analysis" (Academic press 1978) or by Yasuda et al described in Arch. Int. Pharmacodyn., vol. 242, p. 77-85 (1979), contents of Phosphocreatine (P-creatine), ATP, ADP, AMP, glucose and lactate in brain were determined. Concentrations (µ moles/g of brain) were calculated. Student's t-test was used in the statical analysis of the results.

[4] = 30 sec. after KCN 2.5mg/kg i.v.
[5] = 120 sec. after KCN 2.5mg/kg i.v.

Question: What does the source list for `c1csc(Cc2ccccc2OCC2CNCCO2)c1` (stereo not drawn) [Compound A, 2-(2-(2-thienylmethyl)phenoxymetyl)morpholine maleate]?
Answer: Coma time (sec.) (log t ± S.E.) (KCN-induced coma): 1.95 ± 0.039 sec.; LD50 at 168 h (Acute toxicity in rats): 1710 mg/kg; dpm/mg tissue dpm/µl serum ([1]; Hippocampus): 0.90 ± 0.07; dpm/mg tissue dpm/µl serum (Δ%) ([1]; Hippocampus): +20%; dpm/mg tissue dpm/µl serum ([1]; Parietal cortex): 1.27 ± 0.11; dpm/mg tissue dpm/µl serum (Δ%) ([1]; Parietal cortex): +21%; Lethality (KCN-induced mortality): 0; Survival animals/ animals used (KCN-induced mortality; p<0.01 vs. control): 10/10**; LD50 at 168 h (Acute toxicity in mice): 716 mg/kg; Latency (ECS): 357.5 ± 46.5 s; Latency [2]: 169.6 ± 26.7 s; Survival time (normabaric hypoxia): 3.87 ± 0.32 min; Latency (CO2-induced amnesia): 324.5 ± 37.1 s; ADP [3, 4]: 0.599 ± 0.020 µmol/g of wet tissue; AMP [3, 4]: 0.107 ± 0.009 µmol/g of wet tissue; ATP [3, 4]: 2.62 ± 0.07 µmol/g of wet tissue; Glucose [3, 4]: 1.25 ± 0.11 µmol/g of wet tissue; Lactate [3, 4]: 4.92 ± 0.17 µmol/g of wet tissue; P-creatine [3, 4]: 2.52 ± 0.13 µmol/g of wet tissue; ECP (Energy charge potential) [3, 4]: 0.880 ± 0.004; ADP [3, 5]: 0.509 ± 0.023 µmol/g of wet tissue; AMP [3, 5]: 0.044 ± 0.005 µmol/g of wet tissue; ATP [3, 5]: 2.60 ± 0.02 µmol/g of wet tissue; Glucose [3, 5]: 0.64 ± 0.04 µmol/g of wet tissue; Lactate [3, 5]: 7.42 ± 0.42 µmol/g of wet tissue; P-creatine [3, 5]: 2.40 ± 0.09 µmol/g of wet tissue; ECP (Energy charge potential) [3, 5]: 0.905 ± 0.004
